# Experimental data reported in article PMC6934184, “Selective DNA-PKcs inhibition extends the therapeutic index of localized radiotherapy and chemotherapy” (The Journal of Clinical Investigation, 2019).
# Molecular target: T1, CSNK1G1 (CK1 gamma 1) (Homo sapiens, UniProt Q9HCP0)
# T1 construct: purchased Thermo Fisher Scientific (Life Technologies) SelectScreen
# Assay: SelectScreen Z'LYTE
# Type: biochemical
# How it was run: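 NU5455 was profiled across the SelectScreen Broad panel of kinase activity and binding assays. Z'LYTE reactions such as CSF1R ran at apparent Km ATP, while the Adapta CAMK1 assay used ATP listed as 10. Values are given as percent.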
# T1 sequence (Q9HCP0 whole entry): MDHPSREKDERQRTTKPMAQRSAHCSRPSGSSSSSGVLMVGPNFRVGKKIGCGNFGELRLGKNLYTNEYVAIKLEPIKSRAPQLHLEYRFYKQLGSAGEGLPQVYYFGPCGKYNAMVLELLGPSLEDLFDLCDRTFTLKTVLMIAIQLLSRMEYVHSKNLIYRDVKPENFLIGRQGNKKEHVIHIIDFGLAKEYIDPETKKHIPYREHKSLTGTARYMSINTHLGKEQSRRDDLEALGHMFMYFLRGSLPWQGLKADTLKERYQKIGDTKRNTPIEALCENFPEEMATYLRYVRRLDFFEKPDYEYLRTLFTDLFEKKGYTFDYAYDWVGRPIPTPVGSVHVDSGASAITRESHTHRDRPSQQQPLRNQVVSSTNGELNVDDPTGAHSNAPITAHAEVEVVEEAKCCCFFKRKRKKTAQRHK
compound,measurement,value
CN(C(=O)CN1CCOCC1)c1ccc2sc3c(-c4cccc5c(=O)cc(N6CC7CCC(C6)O7)oc45)cccc3c2c1 [NU5455],inhibition at 1 µM,-9.9%
